Assay results published in BindingDB's records for doi:10.1016/S0893-133X(01)00298-6 (Eli Lilly, 2001).
Values joined by “and” are separate entries in the source; they are usually repeats but may differ in a detail not shown here. Identical values can stand only once.

Assays:
[1] = target: Sodium channel protein type 1 subunit alpha (Rattus norvegicus, UniProt P04774)
[2] = target: Sigma non-opioid intracellular receptor 1 (Cavia porcellus, UniProt Q60492)
[3] = target: ATP-sensitive inward rectifier potassium channel 1 (Rattus norvegicus, UniProt P35560)
[4] = target: Alpha-bungarotoxin (Bungarus multicinctus, UniProt P60615)
[5] = target: Gamma-aminobutyric acid receptor subunit alpha-1 (Bos taurus, UniProt P08219)
[6] = target: 5-hydroxytryptamine receptor 1D (Homo sapiens, UniProt P28221)
[7] = target: Glycine receptor subunit alpha-1 (Rattus norvegicus, UniProt P07727)
[8] = target: Alpha-2A adrenergic receptor (Homo sapiens, UniProt P08913)
[9] = target: Gastrin/cholecystokinin type B receptor (Mus musculus, UniProt P56481)
[10] = target: Substance-K receptor (Rattus norvegicus, UniProt P16610)
[11] = target: Glutamate receptor ionotropic, kainate 1 (Rattus norvegicus, UniProt P22756)
[12] = target: Mu-type opioid receptor (Rattus norvegicus, UniProt P33535)
[13] = target: Delta-type opioid receptor (Rattus norvegicus, UniProt P33533)
[14] = target: Glutamate receptor 3 (Rattus norvegicus, UniProt P19492)
[15] = target: Nitric oxide synthase, brain (Rattus norvegicus, UniProt P29476)
[16] = target: Alpha-1B adrenergic receptor (Rattus norvegicus, UniProt P15823)
[17] = target: D(2) dopamine receptor (Homo sapiens, UniProt P14416)
[18] = target: 5-hydroxytryptamine receptor 1A (Homo sapiens, UniProt P08908)
[19] = target: Sodium channel protein type 2 subunit alpha (Rattus norvegicus, UniProt P04775)
[20] = target: Amine oxidase [flavin-containing] A (Rattus norvegicus, UniProt P21396)
[21] = target: Alpha-1A adrenergic receptor (Homo sapiens, UniProt P35348)
[22] = target: Adenosine receptor A2b (Bos taurus, UniProt Q1LZD0)
[23] = target: Amine oxidase [flavin-containing] B (Rattus norvegicus, UniProt P19643)
[24] = target: Gamma-aminobutyric acid receptor subunit alpha-1 (Rattus norvegicus, UniProt P62813)
[25] = target: Calcium-activated potassium channel subunit beta-1 (Rattus norvegicus, UniProt P97678)
[26] = target: Adenosine receptor A1 (Rattus norvegicus, UniProt P25099)
[27] = target: Phosphatidylinositol 3,4,5-trisphosphate 5-phosphatase 2 (Rattus norvegicus, UniProt Q9WVR3)
[28] = target: Kappa-type opioid receptor (Cavia porcellus, UniProt P41144)
[29] = target: Muscarinic acetylcholine receptor M2 (Homo sapiens, UniProt P08172)
[30] = target: 5-hydroxytryptamine receptor 6 (Homo sapiens, UniProt P50406)
[31] = target: D(1A) dopamine receptor (Rattus norvegicus, UniProt P18901)

Chain of Muscarinic acetylcholine receptor M2 (P08172 whole entry): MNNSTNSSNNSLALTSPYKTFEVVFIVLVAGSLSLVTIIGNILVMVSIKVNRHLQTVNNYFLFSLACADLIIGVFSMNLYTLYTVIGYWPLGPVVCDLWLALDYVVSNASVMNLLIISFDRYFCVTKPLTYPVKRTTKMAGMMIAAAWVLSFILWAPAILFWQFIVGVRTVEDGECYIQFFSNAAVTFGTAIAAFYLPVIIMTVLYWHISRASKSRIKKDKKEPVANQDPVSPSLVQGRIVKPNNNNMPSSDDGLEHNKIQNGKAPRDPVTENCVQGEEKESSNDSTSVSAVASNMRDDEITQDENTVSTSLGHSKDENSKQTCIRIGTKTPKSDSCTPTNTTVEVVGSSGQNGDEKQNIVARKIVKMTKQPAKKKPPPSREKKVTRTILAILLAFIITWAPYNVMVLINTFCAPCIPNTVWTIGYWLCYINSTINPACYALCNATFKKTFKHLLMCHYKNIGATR
Chain of Alpha-2A adrenergic receptor (P08913 whole entry): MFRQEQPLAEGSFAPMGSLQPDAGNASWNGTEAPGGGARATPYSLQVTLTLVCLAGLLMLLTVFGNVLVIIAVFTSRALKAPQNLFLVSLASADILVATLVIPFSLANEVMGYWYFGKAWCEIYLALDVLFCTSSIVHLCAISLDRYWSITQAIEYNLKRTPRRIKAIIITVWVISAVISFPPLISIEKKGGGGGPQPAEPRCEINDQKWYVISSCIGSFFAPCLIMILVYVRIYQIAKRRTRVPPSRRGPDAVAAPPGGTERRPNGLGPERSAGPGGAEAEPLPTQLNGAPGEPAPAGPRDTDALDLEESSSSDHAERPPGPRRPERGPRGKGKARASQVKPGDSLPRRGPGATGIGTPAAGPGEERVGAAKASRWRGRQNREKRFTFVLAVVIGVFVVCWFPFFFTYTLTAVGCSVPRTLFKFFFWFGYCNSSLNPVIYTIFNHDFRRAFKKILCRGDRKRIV
Chain of Sigma non-opioid intracellular receptor 1 (Q60492 whole entry): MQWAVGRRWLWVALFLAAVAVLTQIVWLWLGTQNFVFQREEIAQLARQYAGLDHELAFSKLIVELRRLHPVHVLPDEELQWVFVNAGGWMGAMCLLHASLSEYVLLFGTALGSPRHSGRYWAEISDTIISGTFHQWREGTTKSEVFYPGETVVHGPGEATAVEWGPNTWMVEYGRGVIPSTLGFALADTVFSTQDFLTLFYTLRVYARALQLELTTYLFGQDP
Chain of Substance-K receptor (P16610 whole entry): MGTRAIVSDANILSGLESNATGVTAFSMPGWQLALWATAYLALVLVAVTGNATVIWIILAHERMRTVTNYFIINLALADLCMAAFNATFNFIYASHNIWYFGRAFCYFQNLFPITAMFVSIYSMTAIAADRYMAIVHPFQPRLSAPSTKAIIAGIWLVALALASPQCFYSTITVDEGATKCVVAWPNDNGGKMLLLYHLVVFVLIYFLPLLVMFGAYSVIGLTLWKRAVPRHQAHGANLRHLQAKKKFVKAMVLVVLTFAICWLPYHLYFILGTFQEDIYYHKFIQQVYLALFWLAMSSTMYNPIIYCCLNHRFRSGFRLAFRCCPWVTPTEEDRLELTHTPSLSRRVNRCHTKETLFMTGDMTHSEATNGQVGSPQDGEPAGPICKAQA
Chain of Nitric oxide synthase, brain (P29476 whole entry): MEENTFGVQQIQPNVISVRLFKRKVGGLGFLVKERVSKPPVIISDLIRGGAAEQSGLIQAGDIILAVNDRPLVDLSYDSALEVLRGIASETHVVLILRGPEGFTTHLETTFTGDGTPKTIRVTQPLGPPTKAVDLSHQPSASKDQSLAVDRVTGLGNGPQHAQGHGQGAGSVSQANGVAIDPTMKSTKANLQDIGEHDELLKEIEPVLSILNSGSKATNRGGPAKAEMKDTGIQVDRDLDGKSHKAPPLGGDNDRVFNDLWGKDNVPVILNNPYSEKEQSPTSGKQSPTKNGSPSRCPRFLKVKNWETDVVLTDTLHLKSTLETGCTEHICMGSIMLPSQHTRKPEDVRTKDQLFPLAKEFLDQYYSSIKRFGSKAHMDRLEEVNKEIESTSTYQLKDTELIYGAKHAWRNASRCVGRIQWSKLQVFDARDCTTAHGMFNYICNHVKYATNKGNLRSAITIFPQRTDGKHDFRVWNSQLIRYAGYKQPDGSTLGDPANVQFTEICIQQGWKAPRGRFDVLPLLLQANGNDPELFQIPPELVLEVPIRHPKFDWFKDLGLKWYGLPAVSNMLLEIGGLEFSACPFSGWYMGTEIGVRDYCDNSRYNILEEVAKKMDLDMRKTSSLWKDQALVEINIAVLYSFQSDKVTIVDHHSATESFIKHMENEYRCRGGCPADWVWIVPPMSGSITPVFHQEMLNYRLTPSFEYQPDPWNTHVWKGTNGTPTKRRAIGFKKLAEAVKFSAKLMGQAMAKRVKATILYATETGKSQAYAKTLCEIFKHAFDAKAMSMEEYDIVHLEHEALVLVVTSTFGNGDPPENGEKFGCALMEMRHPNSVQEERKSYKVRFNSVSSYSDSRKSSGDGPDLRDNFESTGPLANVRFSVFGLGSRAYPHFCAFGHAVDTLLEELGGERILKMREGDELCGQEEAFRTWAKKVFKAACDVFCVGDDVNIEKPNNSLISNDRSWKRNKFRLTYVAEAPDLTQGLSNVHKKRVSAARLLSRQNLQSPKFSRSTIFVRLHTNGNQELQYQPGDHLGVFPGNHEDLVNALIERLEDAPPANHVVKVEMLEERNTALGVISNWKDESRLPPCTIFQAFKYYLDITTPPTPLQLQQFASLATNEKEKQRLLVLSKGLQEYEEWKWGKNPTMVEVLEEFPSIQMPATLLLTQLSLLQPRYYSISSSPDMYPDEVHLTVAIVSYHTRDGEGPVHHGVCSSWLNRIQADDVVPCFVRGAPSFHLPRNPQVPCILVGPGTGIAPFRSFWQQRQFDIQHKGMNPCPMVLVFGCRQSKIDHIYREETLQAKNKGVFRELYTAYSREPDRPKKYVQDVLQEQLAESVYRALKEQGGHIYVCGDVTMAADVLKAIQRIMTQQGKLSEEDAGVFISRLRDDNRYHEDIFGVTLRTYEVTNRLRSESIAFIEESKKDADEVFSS
Chain of Glutamate receptor ionotropic, kainate 1 (P22756 whole entry): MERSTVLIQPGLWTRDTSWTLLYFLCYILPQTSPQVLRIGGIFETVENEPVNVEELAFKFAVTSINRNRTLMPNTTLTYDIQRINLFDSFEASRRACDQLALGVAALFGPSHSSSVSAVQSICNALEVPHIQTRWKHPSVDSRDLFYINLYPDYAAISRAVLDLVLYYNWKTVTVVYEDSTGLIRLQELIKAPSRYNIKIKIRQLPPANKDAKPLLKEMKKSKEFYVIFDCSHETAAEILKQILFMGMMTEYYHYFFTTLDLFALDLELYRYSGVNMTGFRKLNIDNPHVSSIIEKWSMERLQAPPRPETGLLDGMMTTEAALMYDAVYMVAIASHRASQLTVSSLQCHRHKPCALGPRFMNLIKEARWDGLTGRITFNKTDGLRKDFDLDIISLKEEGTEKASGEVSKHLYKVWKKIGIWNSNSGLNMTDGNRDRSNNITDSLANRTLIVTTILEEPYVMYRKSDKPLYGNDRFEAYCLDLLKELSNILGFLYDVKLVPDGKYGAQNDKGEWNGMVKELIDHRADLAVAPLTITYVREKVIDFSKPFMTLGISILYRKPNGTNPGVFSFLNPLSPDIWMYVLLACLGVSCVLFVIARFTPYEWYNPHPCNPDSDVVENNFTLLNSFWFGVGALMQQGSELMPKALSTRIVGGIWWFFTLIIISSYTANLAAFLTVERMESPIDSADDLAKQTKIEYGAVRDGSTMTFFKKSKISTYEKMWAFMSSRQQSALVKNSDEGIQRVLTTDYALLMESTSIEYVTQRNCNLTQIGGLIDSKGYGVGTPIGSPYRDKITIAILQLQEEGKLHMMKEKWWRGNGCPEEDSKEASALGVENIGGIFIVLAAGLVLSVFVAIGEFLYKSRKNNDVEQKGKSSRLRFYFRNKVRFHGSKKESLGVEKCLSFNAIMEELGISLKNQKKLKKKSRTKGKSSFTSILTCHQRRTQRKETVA
Chain of Gamma-aminobutyric acid receptor subunit alpha-1 (Bos taurus, UniProt P08219) (P08219 whole entry): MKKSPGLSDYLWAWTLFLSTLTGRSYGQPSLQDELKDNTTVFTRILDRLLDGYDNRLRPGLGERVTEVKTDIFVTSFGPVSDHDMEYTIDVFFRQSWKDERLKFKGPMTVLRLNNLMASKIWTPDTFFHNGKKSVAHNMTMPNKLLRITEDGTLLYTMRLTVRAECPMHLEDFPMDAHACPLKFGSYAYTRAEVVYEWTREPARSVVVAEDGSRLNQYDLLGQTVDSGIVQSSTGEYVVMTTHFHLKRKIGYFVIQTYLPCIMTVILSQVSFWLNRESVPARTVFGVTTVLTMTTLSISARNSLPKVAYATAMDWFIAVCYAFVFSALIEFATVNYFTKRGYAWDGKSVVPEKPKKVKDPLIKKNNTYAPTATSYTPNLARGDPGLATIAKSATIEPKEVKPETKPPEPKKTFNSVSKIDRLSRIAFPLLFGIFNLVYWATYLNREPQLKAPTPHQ
Chain of Adenosine receptor A1 (P25099 whole entry): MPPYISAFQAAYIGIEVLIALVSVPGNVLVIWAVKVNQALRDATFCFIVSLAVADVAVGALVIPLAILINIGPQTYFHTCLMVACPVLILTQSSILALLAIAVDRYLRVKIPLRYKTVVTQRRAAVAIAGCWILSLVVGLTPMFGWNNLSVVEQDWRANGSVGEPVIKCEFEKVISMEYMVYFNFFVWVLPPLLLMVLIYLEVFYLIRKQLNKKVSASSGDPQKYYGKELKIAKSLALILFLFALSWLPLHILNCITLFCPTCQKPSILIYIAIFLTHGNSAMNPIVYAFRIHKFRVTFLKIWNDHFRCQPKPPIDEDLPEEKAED
Chain of Calcium-activated potassium channel subunit beta-1 (P97678 whole entry): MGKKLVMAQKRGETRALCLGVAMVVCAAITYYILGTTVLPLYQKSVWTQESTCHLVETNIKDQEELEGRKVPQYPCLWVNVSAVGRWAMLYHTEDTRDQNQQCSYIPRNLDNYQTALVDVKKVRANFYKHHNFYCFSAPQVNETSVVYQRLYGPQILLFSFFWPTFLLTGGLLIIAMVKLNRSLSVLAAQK
Chain of Alpha-bungarotoxin (P60615 whole entry): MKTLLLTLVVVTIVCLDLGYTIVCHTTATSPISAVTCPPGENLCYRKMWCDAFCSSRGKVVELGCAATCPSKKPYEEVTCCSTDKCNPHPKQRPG

| Structure (SMILES) | Ki [1] [nM] | Ki [2] [nM] | Ki [3] [nM] | Ki [4] [nM] | Ki [5] [nM] | Ki [6] [nM] | Ki [7] [nM] | Ki [8] | Ki [9] [nM] | Ki [10] [nM] | Ki [11] [nM] | Ki [12] [nM] | Ki [13] [nM] | Ki [14] [nM] | Ki [15] [nM] | Ki [16] [nM] | Ki [17] [nM] | Ki [18] [nM] | Ki [19] [nM] | Ki [20] [nM] | also measured |
| --- | --- | --- | --- | --- | --- | --- | --- | --- | --- | --- | --- | --- | --- | --- | --- | --- | --- | --- | --- | --- | --- |
| COc1ccc(C(CN(C)C)C2(O)CCCCC2)cc1 (stereo unspecified) [NSC_62923] | > 1000 | 1000 | > 1000 | 1000 | > 1000 | > 10000 | 1000 | > 10000 nM and 1000 nM | > 1000 | 1000 | 1000 | 1000 | 1000 | > 1000 | 1000 | > 1000 | > 10000 | > 10000 | > 1000 | > 10000 | Ki [21]: > 10000 nM; Ki [22]: 1000 nM; Ki [23]: > 10000 nM; Ki [24]: > 1000 nM; Ki [25]: 1000 nM; Ki [26]: > 1000 nM; Ki [27]: 1000 nM; Ki [28]: 1000 nM; Ki [29]: > 10000 nM and 1000 nM; Ki [30]: 2790 nM; Ki [31]: 1000 nM |
| CNCC[C@H](Oc1cccc2ccccc12)c1cccs1 [DULOXETINE] | > 1000 | 1000 | > 1000 | 1000 | > 1000 | 3000 | 1000 | 8600 nM and 1000 nM | > 1000 | 1000 | 1000 | 1000 | 1000 | > 1000 | 1000 | > 1000 | > 10000 | 5000 | > 1000 | > 10000 | Ki [22]: 1000 nM; Ki [23]: > 10000 nM; Ki [24]: > 1000 nM; Ki [25]: 1000 nM; Ki [26]: > 1000 nM; Ki [27]: 1000 nM; Ki [28]: 1000 nM; Ki [29]: 3000 nM and 1000 nM; Ki [30]: 419 nM; Ki [31]: 1000 nM |
